# Patent publication US6737383B1, “Herbicidal oxadiazolidines” (priority 1999, dated 2004)
# Key:
# [1] = tested on: Italian ryegrass; test: Test E Italian ryegrass; assay type: in vivo, Lolium multiflorum; details: Preemergence; for I. Ryegrass plant response rating (0 to 100 scale): Rate 250 g/ha
# [2] = tested on: duck salad; test: Test B flood test duck salad; assay type: in vivo, Heteranthera limosa
# Outline: (§1)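 Each value is a visual injury score relative to controls, with 10 meaning complete control and 0 no effect. Evaluation took place twelve to sixteen days after the 2-leaf-stage plants were treated and kept in the greenhouse.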
# [3] = tested on: blackgrass; test: Test E blackgrass; assay type: in vivo, Alopecurus myosuroides; details: Preemergence; for Blackgrass plant response rating (0 to 100 scale): Rate 250 g/ha
# [4] = tested on: green foxtail; test: Test E green foxtail; assay type: in vivo, Setaria viridis; details: Preemergence; for Green foxtail plant response rating (0 to 100 scale): Rate 250 g/ha
# [5] = tested on: sugar beet; test: Test B pre/postemergence sugar beet; assay type: in vivo, Beta vulgaris; details: for Sugarbeets plant response rating (0 to 10 scale): 0 is no effect
# Outline: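 Herbicidal effect was estimated by eye on a ten-point control scale after plants spent twelve to sixteen days in a greenhouse following soil or foliar treatment. Foliar sprays targeted plants at one to four leaves; all doses were formulated in a non-phytotoxic solvent with surfactant.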
# [6] = tested on: winter wheat; test: Test E winter wheat; assay type: in vivo, Triticum aestivum; details: Postemergence, 0 to 100 scale
# Outline: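 Plants were grown under normal greenhouse practice; for postemergence, in sandy loam soil mixed 60:40 with potting mix, treated at the 1- to 4-leaf stage. The compound was in a non-phytotoxic solvent carrying a surfactant. After roughly 21 to 28 days plants were scored visually against untreated plants.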
# [7] = tested on: wild oat; test: Test E wild oat; assay type: in vivo, Avena fatua; details: Preemergence; for Wild oat plant response rating (0 to 100 scale): Rate 250 g/ha
# [8] = tested on: smallflower flatsedge; test: Test B flood test smallflower flatsedge; assay type: in vivo, Cyperus difformis
# Outline: as §1
# [9] = tested on: winter barley; test: Test E winter barley; assay type: in vivo, Hordeum vulgare; details: Preemergence; for Barley (winter) plant response rating (0 to 100 scale): Rate 250 g/ha
# [10] = tested on: bamyardgrass; test: Test B flood test barnyardgrass; assay type: in vivo, Echinochloa crus-galli
# Outline: as §1
# [11] = tested on: winter wheat; test: Test E winter wheat; assay type: in vivo, Triticum aestivum; details: Preemergence; for Wheat (winter) plant response rating (0 to 100 scale): Rate 250 g/ha
# [12] = tested on: rice; test: Test B flood test rice; assay type: in vivo, Oryza sativa
# Outline: as §1
# [13] = Rate 62 g/ha, 0 to 100 scale, 0 no effect, 100 complete control
# [14] = Rate 125 g/ha, 0 to 100 scale (0 no effect, 100 complete control)
# [15] = Rate 62 g/ha, Postemergence section, flood test species, scale of 0 to 10 where 0 is no effect and 10 is complete control
# [16] = Rate 125 g/ha, listed under Postemergence (flood test species), scale 0 to 10
# [17] = Rate 250 g/ha, Postemergence section, flood test species
# [18] = Rate 500 g/ha, listed under Postemergence (flood test species), scale 0 to 10
# [19] = Preemergence, Rate 62 g/ha, scale of 0 to 10 where 0 is no effect and 10 is complete control
# [20] = Preemergence, Rate 125 g/ha, 10 is complete control
# [21] = Preemergence, Rate 250 g/ha, scale 0 to 10, 0 is no effect, 10 is complete control
# [22] = Preemergence, Rate 500 g/ha, scale of 0 to 10 where 0 is no effect and 10 is complete control
# [23] = Rate 62 g/ha, Postemergence, scale of 0 to 10 where 0 is no effect and 10 is complete control
# [24] = Rate 125 g/ha, Postemergence, scale 0 to 10
# [25] = Rate 500 g/ha, Postemergence, scale 0 to 10
# [26] = Rate 500 g/ha, 0 to 100 scale where 0 is no effect and 100 is complete control
# [27] = Rate 1000 g/ha, 0 to 100 scale where 0 is no effect and 100 is complete control
# [28] = Rate 62 g/ha, headed Pre-emergence (flood test species), scale 0 to 10 (0 no effect, 10 complete control)
# [29] = Rate 125 g/ha, Pre-emergence, flood test species, scale 0 to 10 where 0 is no effect and 10 is complete control
# [30] = Rate 250 g/ha, Pre-emergence, flood-test species, scale 0 to 10, 0 is no effect, 10 is complete control
# [31] = Rate 500 g/ha, Pre-emergence, flood test species, scale 0 to 10 (0 no effect, 10 complete control)
# [32] = Rate 1000 g/ha, 0 is no effect and 100 is complete control
# [33] = Rate 500 g/ha, 0 is no effect, 100 is complete control
# [34] = Rate 1000 g/ha, 0 to 100 scale, 0 no effect, 100 complete control
compound,measurement,setting,value
C=C(C)CCn1c(=O)on(C(=O)N(c2ccc(F)cc2)C(C)C)c1=O [Compound 199],"Plant response rating, I. Ryegrass",[1]; [13],70
same,"Plant response rating, I. Ryegrass",[1]; [14],60
same,I. Ryegrass plant response rating (0 to 100 scale),[1],70
same,Ducksalad plant response rating,[2]; [15],0
same,Ducksalad plant response rating,[2]; [16],0
same,"Plant response rating (0 to 10; 0 is no effect, 10 is complete control), Ducksalad",[2]; [17],0
same,Ducksalad plant response rating,[2]; [18],2
same,"Plant response rating, Blackgrass",[3]; [13],60
same,"Plant response rating, Blackgrass",[3]; [14],65
same,Blackgrass plant response rating (0 to 100 scale),[3],60
same,"Plant response rating, Green foxtail",[4]; [13],100
same,"Plant response rating, Green foxtail",[4]; [14],100
same,Green foxtail plant response rating (0 to 100 scale),[4],100
same,Sugarbeets plant response rating,[5]; [19],4
same,Sugarbeets plant response rating (0 to 10 scale),[5]; [20],5
same,Sugarbeets plant response rating,[5]; [21],5
same,"Plant response rating, Sugarbeets",[5]; [22],6
same,Sugarbeets plant response rating,[5]; [23],0
same,Sugarbeets plant response rating,[5]; [24],0
same,"Plant response rating (0 to 10; 0 is no effect, 10 is complete control), Sugarbeets","[5]; Rate 250 g/ha, Postemergence",0
same,Sugarbeets plant response rating,[5]; [25],2
same,"Plant response rating, Wheat (winter)",[6]; Rate 62 g/ha,50
same,"Plant response rating, Wheat (winter)",[6]; Rate 125 g/ha,55
same,"Plant response rating, Wild oat",[7]; [13],60
same,"Plant response rating, Wild oat",[7]; [14],70
same,Wild oat plant response rating (0 to 100 scale),[7],80
same,S. Flatsedge plant response rating,[8]; [15],0
same,S. Flatsedge plant response rating,[8]; [16],0
same,"Plant response rating (0 to 10; 0 is no effect, 10 is complete control), S. Flatsedge",[8]; [17],2
same,S. Flatsedge plant response rating,[8]; [18],7
same,"Plant response rating, Barley (winter)",[9]; [13],70
same,"Plant response rating, Barley (winter)",[9]; [14],70
same,Barley (winter) plant response rating (0 to 100 scale),[9],70
same,Barnyardgrass plant response rating,[10]; [15],0
same,Barnyardgrass plant response rating,[10]; [16],0
same,"Plant response rating (0 to 10; 0 is no effect, 10 is complete control), Barnyardgrass",[10]; [17],0
same,Barnyardgrass plant response rating,[10]; [18],8
same,"Plant response rating, Wheat (winter)",[11]; [13],60
same,"Plant response rating, Wheat (winter)",[11]; [14],70
same,Wheat (winter) plant response rating (0 to 100 scale),[11],50
same,Rice plant response rating,[12]; [15],0
same,Rice plant response rating,[12]; [16],0
same,"Plant response rating (0 to 10; 0 is no effect, 10 is complete control), Rice",[12]; [17],0
same,Rice plant response rating,[12]; [18],0
CC(C)N(C(=O)n1oc(=O)n(Cc2ccco2)c1=O)c1ccc(F)cc1F [Compound 208],I. Ryegrass plant response rating (0 to 100 scale),[1],50
same,"Plant response rating, I. Ryegrass",[1]; [26],60
same,"Plant response rating, I. Ryegrass",[1]; [27],95
same,Ducksalad plant response rating,[2]; [28],0
same,Ducksalad plant response rating,[2]; [29],0
same,Ducksalad plant response rating,[2]; [30],0
same,Ducksalad plant response rating,[2]; [31],0
same,Blackgrass plant response rating (0 to 100 scale),[3],40
same,"Plant response rating, Blackgrass",[3]; [26],85
same,"Plant response rating, Blackgrass",[3]; [27],85
same,Green foxtail plant response rating (0 to 100 scale),[4],40
same,"Plant response rating, Green foxtail",[4]; [26],60
same,"Plant response rating, Green foxtail",[4]; [27],70
same,Sugarbeets plant response rating,[5]; [19],0
same,Sugarbeets plant response rating (0 to 10 scale),[5]; [20],0
same,Sugarbeets plant response rating,[5]; [21],0
same,"Plant response rating, Sugarbeets",[5]; [22],0
same,Sugarbeets plant response rating,[5]; [23],0
same,Sugarbeets plant response rating,[5]; [24],0
same,"Plant response rating (0 to 10; 0 is no effect, 10 is complete control), Sugarbeets","[5]; Rate 250 g/ha, Postemergence",0
same,Sugarbeets plant response rating,[5]; [25],0
same,"Plant response rating, Wheat (winter)",[6]; [32],60
same,"Plant response rating, Wheat (winter)",[6]; [33],50
same,Wild oat plant response rating (0 to 100 scale),[7],50
same,"Plant response rating, Wild oat",[7]; [26],60
same,"Plant response rating, Wild oat",[7]; [27],50
same,S. Flatsedge plant response rating,[8]; [28],0
same,S. Flatsedge plant response rating,[8]; [29],0
same,S. Flatsedge plant response rating,[8]; [30],0
same,S. Flatsedge plant response rating,[8]; [31],0
same,Barley (winter) plant response rating (0 to 100 scale),[9],30
same,"Plant response rating, Barley (winter)",[9]; [26],40
same,"Plant response rating, Barley (winter)",[9]; [27],50
same,Barnyardgrass plant response rating,[10]; [28],0
same,Barnyardgrass plant response rating,[10]; [29],0
same,Barnyardgrass plant response rating,[10]; [30],0
same,Barnyardgrass plant response rating,[10]; [31],0
same,Wheat (winter) plant response rating (0 to 100 scale),[11],30
same,"Plant response rating, Wheat (winter)",[11]; [26],30
same,"Plant response rating, Wheat (winter)",[11]; [27],30
same,Rice plant response rating,[12]; [28],0
same,Rice plant response rating,[12]; [29],0
same,Rice plant response rating,[12]; [30],0
same,Rice plant response rating,[12]; [31],0
C#CCn1c(=O)on(C(=O)N(c2ccc(F)cc2)C(C)C)c1=O [Compound 212],I. Ryegrass plant response rating (0 to 100 scale),[1],60
same,"Plant response rating, I. Ryegrass",[1]; [26],70
same,"Plant response rating, I. Ryegrass",[1]; [34],70
same,Ducksalad plant response rating,[2]; [28],0
same,Ducksalad plant response rating,[2]; [29],0
same,Ducksalad plant response rating,[2]; [30],0
same,Ducksalad plant response rating,[2]; [31],2
same,Blackgrass plant response rating (0 to 100 scale),[3],20
same,"Plant response rating, Blackgrass",[3]; [26],50
same,"Plant response rating, Blackgrass",[3]; [34],65
same,Green foxtail plant response rating (0 to 100 scale),[4],55
same,"Plant response rating, Green foxtail",[4]; [26],65
same,"Plant response rating, Green foxtail",[4]; [34],100
same,Sugarbeets plant response rating,[5]; [19],0
same,Sugarbeets plant response rating,"[5]; Preemergence, Rate 250 g/ha, scale of 0 to 10 where 0 is no effect and 10 is complete control",5
same,"Plant response rating, Sugarbeets",[5]; [22],8
same,Sugarbeets plant response rating,[5]; [23],0
same,Sugarbeets plant response rating,[5]; [24],0
same,Sugarbeets plant response rating,"[5]; Rate 125 g/ha, Preemergence, scale of 0 to 10 where 0 is no effect and 10 is complete control",5
same,"Plant response rating (0 to 10; 0 is no effect, 10 is complete control), Sugarbeets","[5]; Rate 250 g/ha, Postemergence",0
same,Sugarbeets plant response rating,[5]; [25],5
same,"Plant response rating, Wheat (winter)",[6]; [32],75
same,"Plant response rating, Wheat (winter)",[6]; [33],70
same,Wild oat plant response rating (0 to 100 scale),[7],60
same,"Plant response rating, Wild oat",[7]; [26],70
same,"Plant response rating, Wild oat",[7]; [34],70
same,S. Flatsedge plant response rating,[8]; [28],0
same,S. Flatsedge plant response rating,[8]; [29],0
same,S. Flatsedge plant response rating,[8]; [30],0
same,S. Flatsedge plant response rating,[8]; [31],0
same,Barley (winter) plant response rating (0 to 100 scale),[9],20
same,"Plant response rating, Barley (winter)",[9]; [26],40
same,"Plant response rating, Barley (winter)",[9]; [34],50
same,Barnyardgrass plant response rating,[10]; [28],0
same,Barnyardgrass plant response rating,[10]; [29],0
same,Barnyardgrass plant response rating,[10]; [30],0
same,Barnyardgrass plant response rating,[10]; [31],0
same,Wheat (winter) plant response rating (0 to 100 scale),[11],10
same,"Plant response rating, Wheat (winter)",[11]; [26],30
same,"Plant response rating, Wheat (winter)",[11]; [34],60
same,Rice plant response rating,[12]; [28],0
same,Rice plant response rating,[12]; [29],0
same,Rice plant response rating,[12]; [30],0
same,Rice plant response rating,[12]; [31],0
